Tested on: Staphylococcus aureus
Assay: Aggregation of fluorescently labelled microorganisms, MAC (Example 1)
Assay type: cell-based
Procedure: Microbial cells were fluorescently labelled with fluorescein isothiocyanate (FITC, Sigma-Aldrich, St Louis, MO, USA) or SYTO™ 24 green fluorescent nucleic acid stain (Thermo Fisher, Rockford, IL, USA). FITC labelling was performed by incubation in a 0.2 M NaHCO3 pH 9.5 buffer with a final concentration of 0.2 mg/ml FITC (from a 2 mg/ml FITC stock in DMSO) and shaking for 1 hour at 37° C. and subsequently extensively washing with phosphate buffered saline (PBS). SYTO-24 labelling was performed in PBS using a final 1 μM concentration of the dye for at least 30 minutes and subsequently washing with PBS. […] Aggregation was examined immediately or at a more convenient moment using a fluorescence microscope. […]
The Minimal Aggregation Concentration (MAC), the lowest concentration of polysaccharides still convincingly showing microbial aggregation, was determined by 2-fold serial dilutions and expressed in mg or microgram polysaccharides/ml. […] Quantification of samples was based on dry weight determination unless otherwise indicated.
10× concentrated Aloe vera leaf juice, a 10× decolorized liquid made from purified inner leaf fillet that contained not less than 10% polysaccharides, was purchased at a commercial supplier (ACTIValoe® Aloe vera Gel 10X-D, AloeCorp, Harlingen, TX, USA). […] The Minimal Aggregation Concentration (MAC) of the >12 kDa fraction was determined and compared to that of D-mannose.

For `O=C[C@@H](O)[C@@H](O)[C@H](O)[C@H](O)CO` [D-mannose], the MAC (Minimal Aggregation Concentration towards Staphylococcus aureus, mg polysaccharides/ml) was >16 mg/mL and the aggregating activity (highest concentration tested (16 mg/ml)) was “did not have aggregating activity”.

Reference: patent US12589130B2, “Aloe extracts for microbial neutralisation” (2QR RESEARCH B.V., priority 2020, dated 2026)
